According to publication PMC2778857 (Biochemistry, 2009):
Positions count from the first letter of the chain named.

Assays:
Assay in all cases: titration with apoprotein, FMN absorbance or fluorescence
[1] = biological target: T1, FMN-binding domain (FMN domain) of flavocytochrome P450BM-3 (BM3) (Priestia megaterium, UniProt P14779, Y537H)
T1 sequence (P14779 472-650 Y537H): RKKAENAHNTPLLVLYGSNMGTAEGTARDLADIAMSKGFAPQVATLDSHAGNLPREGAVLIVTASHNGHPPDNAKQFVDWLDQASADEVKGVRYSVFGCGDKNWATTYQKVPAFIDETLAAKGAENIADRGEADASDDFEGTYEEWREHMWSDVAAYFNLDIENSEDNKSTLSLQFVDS

[2] = biological target: T2, FMN-binding domain (FMN domain) of flavocytochrome P450BM-3 (BM3) (Priestia megaterium, UniProt P14779, N538A)
T2 sequence (P14779 472-650 N538A): T1 sequence (P14779 472-650 Y537H) with H66Y, N67A

[3] = biological target: T3, FMN-binding domain (FMN domain) of flavocytochrome P450BM-3 (BM3) (Priestia megaterium, UniProt P14779, G539A/N538G)
T3 sequence (P14779 472-650 N538G/G539A): T1 sequence (P14779 472-650 Y537H) with H66Y, N67G, G68A

[4] = biological target: T4, FMN-binding domain (FMN domain) of flavocytochrome P450BM-3 (BM3) (Priestia megaterium, UniProt P14779, P542A)
T4 sequence (P14779 472-650 P542A): T1 sequence (P14779 472-650 Y537H) with H66Y, P71A

[5] = biological target: T5, FMN-binding domain (FMN domain) of flavocytochrome P450BM-3 (BM3) (Priestia megaterium, UniProt P14779, P541A)
T5 sequence (P14779 472-650 P541A): T1 sequence (P14779 472-650 Y537H) with H66Y, P70A

[6] = biological target: T6, FMN-binding domain (FMN domain) of flavocytochrome P450BM-3 (BM3) (Priestia megaterium, UniProt P14779, N538G)
T6 sequence (P14779 472-650 N538G): T1 sequence (P14779 472-650 Y537H) with H66Y, N67G

[7] = biological target: T7, FMN-binding domain (FMN domain) of flavocytochrome P450BM-3 (BM3) (Priestia megaterium, UniProt P14779, Y537R)
T7 sequence (P14779 472-650 Y537R): T1 sequence (P14779 472-650 Y537H) with H66R

[8] = biological target: T8, FMN-binding domain (FMN domain) of flavocytochrome P450BM-3 (BM3) (Priestia megaterium, UniProt P14779, G539A/N538A)
T8 sequence (P14779 472-650 N538A/G539A): T1 sequence (P14779 472-650 Y537H) with H66Y, N67A, G68A

[9] = biological target: T9, FMN-binding domain (FMN domain) of flavocytochrome P450BM-3 (BM3) (Priestia megaterium, UniProt P14779)
T9 sequence (P14779 472-650): T1 sequence (P14779 472-650 Y537H) with H66Y

`Cc1cc2nc3c(=O)[nH]c(=O)nc-3n(C[C@H](O)[C@H](O)[C@H](O)COP(=O)(O)O)c2cc1C` [FMN] gave a Kd [1] of 350 ± 72 nM, a Kd [2] of 30 ± 5 nM and a Kd [3] of 400 ± 100 nM. For the same compound, the Kd [4] was 140 ± 33 nM, the Kd [5] was 43 ± 7 nM and the Kd [6] was 30 ± 5 nM. It also gave a Kd [7] of 2100 ± 600 nM, a Kd [8] of 1000 ± 200 nM and a Kd [9] of 41 ± 18 nM.
